Where a SMILES comes first, the peptide text is derived from it. Where no end group is shown, it is not given here.
Key:
[1] = test system: human monocyte IgG Fc receptors; details: cited from earlier work
[2] = test system: human natural killer (NK) cell-induced cytotoxicity against K562 human erythroleukemia cells; assay: natural killer (NK) cell assay, chromium 51 release; format: cell-based
Procedure: 1. To calculate percent inhibition, the average of the three dilutions of
2. N K effector cells were human mononuclear cells freshly isolated by
when incubated with normal human mononuclear cells (lymphocytes and monocytes) separated by ficoll-metronidazole gradient. […] E., et al., J. Clin. Invest. 67:1324, 1981).
The target cells used were a human erythroleukemia cell line K562 which has molecular structures recognized by NK cells. The K562 targets were prepared by incubating them with the radioactive isotope chromium 51 which is incorporated within the cells. The cells were then washed to remove externally adherent chromium 51 and 20,000 K562 cells were added to 400,000, 200,000 and 100,000 mononuclear cells to provide NK killer-to-target ratio of 20 to 1, 10 to 1, and 5 to 1, respectively, in a final volume of 200 microliters. After a 3-hour incubation at 37° C. in a 5% CO2 atmosphere, the amount of chromium 51 in the supernatent (released from dead target cells) was counted to quantitate the amount of NK killing activity. The killing activity of peptide-treatedcells was compared to non-peptide treated cells to assess the peptide's effect on NK killing activity.

human mast cells = details: Stanworth et al. 1979; cited from earlier work
rodent mast cells = details: Stanworth et al. 1979; cited from earlier work
[3] = test system: macrophage IgG Fc receptors of mice; details: Stanworth, Mol. Immunol. 19, 1245 (1982); cited from earlier work
mouse macrophages = details: Stanworth, Mol. Immunol. 19, 1245 (1982); cited from earlier work
[4] = molecular target: T1, IgE Fc receptors on a human lymphoblastoid cell line (wil-2wt) (Homo sapiens, UniProt P06734); details: Hamburger, Immunology 38, 781 (1979); cited from earlier work
T1 construct: IgE Fc receptors on a human lymphoblastoid cell line (wil-2wt); host or cells: wil-2wt human lymphoblastoid cell line (endogenous receptor)
T1 sequence (P06734 1-321): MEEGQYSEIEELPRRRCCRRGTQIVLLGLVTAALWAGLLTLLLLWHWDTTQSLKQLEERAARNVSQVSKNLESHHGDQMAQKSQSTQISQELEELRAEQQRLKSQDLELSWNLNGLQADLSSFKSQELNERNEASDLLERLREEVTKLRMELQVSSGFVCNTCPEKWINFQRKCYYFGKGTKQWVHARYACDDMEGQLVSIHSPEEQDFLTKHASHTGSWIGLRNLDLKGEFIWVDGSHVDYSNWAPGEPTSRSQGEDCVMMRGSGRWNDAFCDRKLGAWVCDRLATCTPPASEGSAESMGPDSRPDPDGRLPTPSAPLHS

[5] = peptide 100 μg/ml, (killer-to-target ratio 20 to 1)

For “QYDSTYR [peptide identical to IgG aa 295-301]”, which “blocking of IgG binding to human monocyte IgG Fc receptors” value [1] is on record?
Its value is “could slightly block”.

For `C[C@H](NC(=O)[C@H](CC(=O)O)NC(=O)[C@@H]1CCCN1)C(=O)N[C@@H](CCCNC(=N)N)C(=O)O` [Pro--Asp--Ala-- Arg, Pro-Asp-Ala-Arg] (H-PDAR-OH), which “% cytotoxicity” value ([2]; peptide 25 μg/ml, 5 to 1) is on record?
The value was 10.1%.

And the “% cytotoxicity” value ([2]; peptide 25 μg/ml, 10 to 1)?
Its value is 17.8%.

And the “% cytotoxicity” value ([2]; peptide 25 μg/ml, 20 to 1)?
The value was 22.7%.

And the “% cytotoxicity” value ([2]; peptide 50 μg/ml, 5 to 1)?
The value was 10.3%.

What about the “% cytotoxicity” value ([2]; peptide 50 μg/ml, 10 to 1) of the same compound?
The value was 15.5%.

And the “% cytotoxicity” value ([2]; peptide 50 μg/ml, 20 to 1)?
The value was 23.1%.

What about the “% cytotoxicity” value ([2]; peptide 100 μg/ml, 5 to 1) of the same compound?
Its value is 5.6%.

What about the “% cytotoxicity” value ([2]; peptide 100 μg/ml, 10 to 1) of the same compound?
Its value is 10.4%.

And the “% cytotoxicity” value [2, 5]?
The value was 17.1%.

For `C[C@H](NC(=O)[C@@H](N)CC(=O)O)C(=O)N[C@@H](CCCNC(=N)N)C(=O)N[C@@H](Cc1c[nH]cn1)C(=O)O` [Asp--Ala--Arg--His, Asp-Ala-Arg-His] (H-DARH-OH), which “% cytotoxicity” value ([2]; peptide 25 μg/ml, 5 to 1) is on record?
Its value is 6.8%.

What about the “% cytotoxicity” value ([2]; peptide 25 μg/ml, 10 to 1) of the same compound?
The value was 12.9%.

And the “% cytotoxicity” value ([2]; peptide 25 μg/ml, 20 to 1)?
Its value is 19.3%.

And the “% cytotoxicity” value ([2]; peptide 50 μg/ml, 5 to 1)?
Its value is 7.5%.

What about the “% cytotoxicity” value ([2]; peptide 50 μg/ml, 10 to 1) of the same compound?
The value was 12.8%.

What about the “% cytotoxicity” value ([2]; peptide 50 μg/ml, 20 to 1) of the same compound?
Its value is 13.8%.

And the “% cytotoxicity” value ([2]; peptide 100 μg/ml, 5 to 1)?
Its value is 10.5%.

What about the “% cytotoxicity” value ([2]; peptide 100 μg/ml, 10 to 1) of the same compound?
Its value is 16.4%.

What about the “% cytotoxicity” value [2, 5] of the same compound?
Its value is 24.5%.

For “PRKTKGSGFFVF [peptide identical to portion of Cε 4 of human IgE, aa 495-506]”, which “degranulation of human mast cells” value (human mast cells) is on record?
The value was “able to cause degranulation”.

What about the “degranulation of rodent mast cells” value (rodent mast cells) of the same compound?
The value was “able to cause degranulation”.

For “YSKLTVDKSR [decapeptide from human IgG, identical to IgG aa 407-416]”, which “blocking of human IgG binding to macrophage IgG Fc receptors of mice” value [3] is on record?
Its value is “blocked human IgG binding”.

What does the source list for `C[C@H](N)C(=O)N[C@@H](CCCNC(=N)N)C(=O)N[C@@H](Cc1c[nH]cn1)C(=O)N[C@@H](CO)C(=O)O` [Ala--Arg--His--Ser, Ala-Arg-His-Ser] (H-ARHS-OH)?
% cytotoxicity ([2]; peptide 25 μg/ml, 5 to 1): 12.5%; % cytotoxicity ([2]; peptide 25 μg/ml, 10 to 1): 19.4%; % cytotoxicity ([2]; peptide 25 μg/ml, 20 to 1): 24.8%; % cytotoxicity ([2]; peptide 50 μg/ml, 5 to 1): 10.4%; % cytotoxicity ([2]; peptide 50 μg/ml, 10 to 1): 20.7%; % cytotoxicity ([2]; peptide 50 μg/ml, 20 to 1): 26.3%; % cytotoxicity ([2]; peptide 100 μg/ml, 5 to 1): 10.6%; % cytotoxicity ([2]; peptide 100 μg/ml, 10 to 1): 18.5%; % cytotoxicity [2, 5]: 21.8%

Which “effect on binding of 125I-human IgG to mouse macrophages” value (mouse macrophages) does the source give for “VFSRLEVTRAE [peptide identical to a portion of Cε 4 of human IgE at aa 505-515]” here?
Its value is “marked enhancement”.

With “PDARHS [hexapeptide derived from Cε 4 at aa 476-481]” as the compound, how does the “blocking of human IgE-binding to IgE Fc receptors on wil-2wt cells” value [4] read?
The value was “could block”.

Reference: patent US4816449A, “Immunotherapeutic anti-inflammatory peptide agents” (Immunetech Pharmaceuticals, priority 1986, dated 1989)
